Patent publication US4347371A, “Disulfide compounds” (Santen Pharmaceutical Co., Ltd., priority 1978, dated 1982)
Read-outs that look alike come from different tables or passages of the source.

Columns and labels:
[1] = test system: angiotensin I-converting enzyme; experiment: Suppressive effect on the pressor response to angiotensin I in unanesthetized rats, oral administration (angiotensin I-converting enzyme inhibition); assay type: in vivo, Male Wistar strain rats; settings: rat, angiotensin I 300 ng/kg i.v.
Protocol: As recently it has been clear that the compounds inhibiting angiotensin I-converting enzyme may be the curative potency against both renal hypertension and essential hypertension, the compounds [I] of this invention are evaluated as antihypertensive agents by the following method.
Male Wistar strain rats weighing 200-300 g were used. Under ether anesthesia, polyethylene cannulae are inserted into carotid artery and jugular vein. The cannula to carotid artery is connected to an electric transducer, while the cannula to jugular vein is connected to an apparatus for continuous infusion. After the complete recovery from anesthesia, angiotensin I is infused intravenously in a dose of 300 ng/kg by the apparatus for continuous infusion, and the pressor response is recorded by polygraph (Nihon Koden, RM-150). The compounds of this invention suspended in 0.5% tragacanth solution are administered orally in a dose of 0.3 ml per 100 g of body weight, and the pressor response to angiotensin I infused intravenously is measured with time.

Aldose reductase = molecular target: T1, Aldose reductase (Rattus norvegicus, UniProt P07943); experiment: Inhibitory activity against aldose reductase purified from rat lenses (absorbance at 340 nm); assay type: biochemical
T1 construct: Aldose reductase is purified from rat lenses; from tissue; host or cells: rat lens

[2] = Acute toxicity test in mice, oral; design: species or system male ddy-std. strain mice; settings: mouse, in vivo, male ddy-std. mice, 0.5% tragacanth suspension
Protocol: The male ddy-std. strain mice (4 weeks of age, weighing 19-21 g) were placed in a breeding room of constant temperature and humidity (23°±1° C., 55±5%) and fed freely pellet diet (CE-2, Clea Japan, Inc.) and water ad. libitum for a week. The mice showing the normal growth were selected for the experiment.
Test compound is suspended in 0.5% tragacanth solution, and administered orally in a dose of 0.5 ml per 20 g B.W.

[3] = pH 6.2, DL-glyceraldehyde 4×10^-4 M, NADPH 5×10^-5 M, read-out: IC50 (molar concentration producing 50% inhibition of aldose reductase)

Structure (SMILES): O=C(O)C1CCC(c2ccccc2O)N1C(=O)CCSSCCC(=O)N1C(C(=O)O)CCC1c1ccccc1O (single isomer, unassigned) [Compound 27]
- Inhibition (%) of pressor response to angiotensin I ([1]; dose 1.3 mg/kg oral, 25 min): 65%
- Inhibition (%) of pressor response to angiotensin I ([1]; dose 1.3 mg/kg oral, 65 min): 55%

Structure (SMILES): C[C@H](CSSC[C@@H](C)C(=O)N1C(c2cccc3ccccc23)SC[C@H]1C(=O)O)C(=O)N1C(c2cccc3ccccc23)SC[C@H]1C(=O)O (stereo partly shown) [Compound 24]
- IC50 (Aldose reductase; [3]): 870 nM

Structure (SMILES): C[C@H](CSSC[C@@H](C)C(=O)N1C(c2cc(Cl)ccc2O)SC[C@H]1C(=O)O)C(=O)N1C(c2cc(Cl)ccc2O)SC[C@H]1C(=O)O (stereo partly drawn) [Compound 11, (4R,4'R)-3,3'-[3,3'-dithiobis[(2S)-2-methylpropanoyl]]bis[2-(5-chloro-2-hydroxyphenyl)-4-thiazolidinecarboxylic acid]]
- IC50 (Aldose reductase; [3]): 640 nM

Structure (SMILES): O=C(O)[C@@H]1CSC(c2ccccc2)N1C(=O)CCSSCCC(=O)N1C(c2ccccc2)SC[C@H]1C(=O)O (stereo partly shown) [Compound 7]
- IC50 (Aldose reductase; [3]): 200 nM

Structure (SMILES): C[C@H](CS)C(=O)N1CSC[C@H]1C(=O)O [Compound 43A, (4R)3-[(2S)-3-mercapto-2-methylpropanoyl]-4-thiazolidinecarboxylic acid, reference compound]
- Inhibition (%) of pressor response to angiotensin I ([1]; dose 1.0 mg/kg oral, 25 min): 50%
- Inhibition (%) of pressor response to angiotensin I ([1]; dose 1.0 mg/kg oral, 65 min): 30%

Structure (SMILES): CC(=O)Oc1ccccc1C1SC[C@@H](C(=O)O)N1C(=O)CCSSCCC(=O)N1C(c2ccccc2OC(C)=O)SC[C@H]1C(=O)O (stereo partly drawn) [Compound 3, (4R,4'R)-3,3'-[3,3'-Dithiobis(propanoyl)]bis[2-(2-acetoxyphenyl)-4-thiazolidinecarboxylic acid]]
- Inhibition (%) of pressor response to angiotensin I ([1]; dose 1.0 mg/kg oral, 25 min): 15%
- Inhibition (%) of pressor response to angiotensin I ([1]; dose 1.0 mg/kg oral, 65 min): 55%
- IC50 (Aldose reductase; [3]): 870 nM

Structure (SMILES): O=C(O)[C@@H]1CSC(c2ccccc2O)N1C(=O)CCS (stereo partly drawn) [Compound 1A, (4R)2-(2-hydroxyphenyl)-3-(3-mercaptopropanoyl)-4-thiazolidinecarboxylic acid, reference compound]
- Inhibition (%) of pressor response to angiotensin I ([1]; dose 1.0 mg/kg oral, 25 min): 55%
- Inhibition (%) of pressor response to angiotensin I ([1]; dose 1.0 mg/kg oral, 65 min): 35%

Structure (SMILES): O=C(O)[C@@H]1CSC(c2ccccc2O)N1C(=O)CSSCC(=O)N1C(c2ccccc2O)SC[C@H]1C(=O)O (stereo partly shown) [Compound 15]
- IC50 (Aldose reductase; [3]): 310 nM

Structure (SMILES): O=C(O)CCSSCCC(=O)N1C(c2ccccc2O)SC[C@H]1C(=O)O (stereo partly drawn) [Compound 41, (4R)-3-[3-(2-Carboxyethyldisulfanyl)propanoyl]-2-(2-hydroxyphenyl)-4-thiazolidinecarboxylic acid]
- Inhibition (%) of pressor response to angiotensin I ([1]; dose 1.3 mg/kg oral, 25 min): 50%
- Inhibition (%) of pressor response to angiotensin I ([1]; dose 1.3 mg/kg oral, 65 min): 60%
- IC50 (Aldose reductase; [3]): 20 nM

Structure (SMILES): Cc1ccc(C2SC[C@@H](C(=O)O)N2C(=O)[C@H](C)CSSC[C@@H](C)C(=O)N2C(c3ccc(C)cc3)SC[C@H]2C(=O)O)cc1 (stereo partly drawn) [Compound 8, (4R,4'R)-3,3'-[3,3'-dithiobis[(2S)-2-methylpropanoyl]]bis[2-(4-methylphenyl)-4-thiazolidinecarboxylic acid]]
- IC50 (Aldose reductase; [3]): 450 nM

Structure (SMILES): C[C@H](CS)C(=O)N1C(c2ccccc2O)SC[C@H]1C(=O)O (stereo partly drawn) [Compound 2A, (4R)2-(2-hydroxyphenyl)-3-[(2S)-3-mercapto-2-methylpropanoyl]-4-thiazolidinecarboxylic acid, reference compound]
- Inhibition (%) of pressor response to angiotensin I ([1]; dose 1.4 mg/kg oral, 25 min): 40%
- Inhibition (%) of pressor response to angiotensin I ([1]; dose 1.4 mg/kg oral, 65 min): 30%

Structure (SMILES): CCCSSCCC(=O)N1C(c2ccccc2O)SC[C@H]1C(=O)O (stereo partly drawn) [Compound 34, (4R)-2-(2-Hydroxyphenyl)-3-(3-propyldisulfanylpropanoyl)-4-thiazolidinecarboxylic acid]
- Inhibition (%) of pressor response to angiotensin I ([1]; dose 1.0 mg/kg oral, 25 min): 45%
- Inhibition (%) of pressor response to angiotensin I ([1]; dose 1.0 mg/kg oral, 65 min): 55%
- IC50 (Aldose reductase; [3]): 860 nM

Structure (SMILES): COc1ccc(C2SC[C@@H](C(=O)O)N2C(=O)[C@H](C)CS)cc1 (stereo partly drawn) [Compound 37A, (4R)3-[(2S)-3-mercapto-2-methylpropanoyl]-2-(4-methoxyphenyl)-4-thiazolidinecarboxylic acid, reference compound]
- Inhibition (%) of pressor response to angiotensin I ([1]; dose 1.0 mg/kg oral, 25 min): 40%
- Inhibition (%) of pressor response to angiotensin I ([1]; dose 1.0 mg/kg oral, 65 min): 20%

Structure (SMILES): C[C@@H]1O[C@@H](Oc2c(-c3ccc(O)c(O)c3)oc3cc(O)cc(O)c3c2=O)[C@H](O)[C@H](O)[C@H]1O [Control, Quercitrin, reference compound]
- IC50 (Aldose reductase): 90 nM

Structure (SMILES): O=C(O)[C@@H]1CSC(c2ccccc2O)N1C(=O)CCSSCCC(=O)N1C(c2ccccc2O)SC[C@H]1C(=O)O (stereo partly drawn) [Compound 1, (4R,4'R)-3,3'-[3,3'-Dithiobis(propanoyl)]bis[2-(2-hydroxyphenyl)-4-thiazolidinecarboxylic acid]]
- Inhibition (%) of pressor response to angiotensin I ([1]; dose 1.0 mg/kg oral, 25 min): 45%
- Inhibition (%) of pressor response to angiotensin I ([1]; dose 1.0 mg/kg oral, 65 min): 55%
- LD50 [2]: 15000 mg/kg
- IC50 (Aldose reductase; [3]): 97 nM

Structure (SMILES): CCCSSC[C@@H](C)C(=O)N1CSC[C@H]1C(=O)O [Compound 43, (4R)-3-[(2S)-2-methyl-3-propyldisulfanylpropanoyl]-4-thiazolidinecarboxylic acid]
- Inhibition (%) of pressor response to angiotensin I ([1]; dose 1.0 mg/kg oral, 25 min): 70%
- Inhibition (%) of pressor response to angiotensin I ([1]; dose 1.0 mg/kg oral, 65 min): 40%

Structure (SMILES): O=C(O)[C@@H]1CSC(c2ccccc2O)N1C(=O)CCCSSCCCC(=O)N1C(c2ccccc2O)SC[C@H]1C(=O)O (stereo partly shown) [Compound 4]
- IC50 (Aldose reductase; [3]): 96 nM

Structure (SMILES): O=C(O)C1CCC(c2ccccc2O)N1C(=O)CCS (single isomer, unassigned) [Compound 27A, α-(+)5-(2-hydroxyphenyl)-1-(3-mercaptopropanoyl)-2-pyrrolidinecarboxylic acid, reference compound]
- Inhibition (%) of pressor response to angiotensin I ([1]; dose 1.3 mg/kg oral, 25 min): 70%
- Inhibition (%) of pressor response to angiotensin I ([1]; dose 1.3 mg/kg oral, 65 min): 50%

Structure (SMILES): O=C(O)[C@@H]1CSC(c2cccc(O)c2)N1C(=O)CCSSCCC(=O)N1C(c2cccc(O)c2)SC[C@H]1C(=O)O (stereo partly shown) [Compound 10]
- IC50 (Aldose reductase; [3]): 730 nM

Structure (SMILES): C[C@H](CSSC[C@@H](C)C(=O)N1C(c2ccccc2O)SC[C@H]1C(=O)O)C(=O)N1C(c2ccccc2O)SC[C@H]1C(=O)O (stereo partly drawn) [Compound 2, (4R,4'R)-3,3'-[3,3'-Dithiobis[(2S)-2-methylpropanoyl]]bis[2-(2-hydroxyphenyl)-4-thiazolidinecarboxylic acid]]
- Inhibition (%) of pressor response to angiotensin I ([1]; dose 1.4 mg/kg oral, 25 min): 30%
- Inhibition (%) of pressor response to angiotensin I ([1]; dose 1.4 mg/kg oral, 65 min): 35%
- IC50 (Aldose reductase; [3]): 97 nM

Structure (SMILES): C=CCSSC[C@@H](C)C(=O)N1C(c2ccc(OC)cc2)SC[C@H]1C(=O)O (stereo partly shown) [Compound 37]
- Inhibition (%) of pressor response to angiotensin I ([1]; dose 1.0 mg/kg oral, 25 min): 60%
- Inhibition (%) of pressor response to angiotensin I ([1]; dose 1.0 mg/kg oral, 65 min): 35%

Structure (SMILES): O=C(O)[C@@H]1CSC(c2ccccc2O)N1C(=O)CCSSCC1CCCO1 (stereo partly shown) [Compound 39]
- IC50 (Aldose reductase; [3]): 840 nM

Structure (SMILES): CC(C)(C)C(=O)OCOC(=O)[C@@H]1CSC(c2ccccc2O)N1C(=O)CCSSCCC(=O)N1C(c2ccccc2O)SC[C@H]1C(=O)OCOC(=O)C(C)(C)C (stereo partly drawn) [Compound 49, Bis[(2,2-dimethyl-1-oxopropoxy)methyl](4R,4'R)-3,3'-[3,3'-dithiobis(propanoyl)]bis[2-(2-hydroxyphenyl)-4-thiazolidinecarboxylate]]
- Inhibition (%) of pressor response to angiotensin I ([1]; dose 1.3 mg/kg oral, 25 min): 35%
- Inhibition (%) of pressor response to angiotensin I ([1]; dose 1.3 mg/kg oral, 65 min): 60%
